BindingDB's records for patent US12037345 (Taiho Pharmaceutical, 2024)
pIC50: −log10 of the molar value.

Target: T1, Tyrosine-protein phosphatase non-receptor type 11 (Homo sapiens, UniProt Q06124)
T1 sequence (Q06124 whole entry): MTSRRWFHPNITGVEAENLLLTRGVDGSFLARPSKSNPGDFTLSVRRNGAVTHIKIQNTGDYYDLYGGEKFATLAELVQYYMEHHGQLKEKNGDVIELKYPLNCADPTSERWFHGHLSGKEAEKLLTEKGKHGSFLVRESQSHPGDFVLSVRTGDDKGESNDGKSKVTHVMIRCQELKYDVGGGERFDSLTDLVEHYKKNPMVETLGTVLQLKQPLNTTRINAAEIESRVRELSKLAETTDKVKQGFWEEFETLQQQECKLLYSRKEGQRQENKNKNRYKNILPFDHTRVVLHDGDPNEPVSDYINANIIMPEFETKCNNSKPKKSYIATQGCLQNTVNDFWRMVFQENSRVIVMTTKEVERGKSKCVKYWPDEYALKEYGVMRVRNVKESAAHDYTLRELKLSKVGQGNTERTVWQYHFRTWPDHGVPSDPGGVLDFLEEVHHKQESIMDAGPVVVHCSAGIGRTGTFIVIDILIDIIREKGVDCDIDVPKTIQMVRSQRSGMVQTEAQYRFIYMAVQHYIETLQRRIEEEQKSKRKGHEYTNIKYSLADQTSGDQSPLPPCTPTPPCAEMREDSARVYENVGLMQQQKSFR
Experiment: SHP2 Biochemical Assay
Procedure: SHP2 activity was monitored by measuring the conversion of the surrogate substrate 6,8-difluoromethylumbelliferyl phosphate (DiFMUP) to the fluorescent product, 6,8-difluoromethylumbelliferone (DiFMU).SHP2 was pre-incubated with test compounds and the activating peptide pIRS1 (H2N-LN(pY)IDLDLV-(PEG)8-LST(pY)ASINFQK-amide) for 30 min, prior to addition of the 6,8-difluoromethylumbelliferyl phosphate (DiFMUP), (Thermo Fisher D6567). Final assay concentrations were 10 pM SHP2, […] pIRS1 peptide, 50 μM DiFMUP, 25 mM Bis-Tris propane, pH 7.0, 150 mM NaCl, 0.05% (v/v) Tween-20, 0.5 mM TCEP and 5% (v/v) DMSO. Rates of reaction were then measured over 30 min by monitoring fluorescence on a BMG Pherastar reader at excitation 360 nm/emission 450 nm. IC50 values were calculated in singlicate from the normalized dose-response plots using four parameter logistic curve fit. The Experiment for each compound was carried out in one time or multiple times, and the IC50 values were shown as a single value (for a compound measured in a single experiment) or an average value (for a compound measured in multiple experiments).

SMILES: Cn1c(N2[C@H]3CC[C@@H]2[C@H](N)C3)nc2[nH]cc(-c3ccc4ncsc4c3Cl)c2c1=O [US12037345, Example 101]
- pIC50: 8.82
